Measurements: ChEMBL document CHEMBL1136208, “Bone-targeted Src kinase inhibitors: novel pyrrolo- and pyrazolopyrimidine analogues” (Bioorg Med Chem Lett, 2003)

Target: Proto-oncogene tyrosine-protein kinase Src (Homo sapiens, UniProt P12931)
Assay: In vitro inhibition of Src protein tyrosine kinase using the Scintillation proximity kinase assay.
Parameters: species or system Oryctolagus cuniculus

Sequence of Proto-oncogene tyrosine-protein kinase Src (P12931 2-536 limits assumed): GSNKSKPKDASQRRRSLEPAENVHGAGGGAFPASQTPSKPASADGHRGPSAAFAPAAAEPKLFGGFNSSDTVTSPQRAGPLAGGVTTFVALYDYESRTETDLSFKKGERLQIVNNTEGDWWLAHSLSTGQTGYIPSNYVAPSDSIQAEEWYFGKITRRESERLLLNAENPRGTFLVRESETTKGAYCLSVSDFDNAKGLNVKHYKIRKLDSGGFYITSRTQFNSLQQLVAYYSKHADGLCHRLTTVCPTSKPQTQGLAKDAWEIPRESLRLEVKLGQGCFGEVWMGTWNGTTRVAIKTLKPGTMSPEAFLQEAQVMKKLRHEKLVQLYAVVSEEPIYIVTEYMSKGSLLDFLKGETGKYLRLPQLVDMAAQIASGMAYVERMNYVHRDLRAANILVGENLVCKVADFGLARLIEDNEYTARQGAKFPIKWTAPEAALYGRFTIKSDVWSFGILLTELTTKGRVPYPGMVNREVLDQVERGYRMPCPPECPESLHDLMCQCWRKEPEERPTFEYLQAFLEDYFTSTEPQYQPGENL

**Q.** How did the IC50 turn out when `COc1cccc(-c2cn(-c3ccc(C(=O)Nc4ccc(P(=O)(O)O)c(P(=O)(O)O)c4)cc3)c3ncnc(N)c23)c1` was run?
**A.** 0.87 µM

**Q.** How did the IC50 turn out when `CN(CCOP(=O)(O)CP(=O)(O)O)CCc1ccc(-n2cc(-c3cccc(O)c3)c3c(N)ncnc32)cc1` was run?
**A.** 0.004 µM

**Q.** With `Nc1ncnc2c1c(-c1cccc(O)c1)nn2-c1cccc(P(=O)(O)CC(=O)O)c1` as the molecule, how does the IC50 read?
**A.** 0.02 µM

**Q.** `COc1cccc(-c2cn(-c3ccc(C(=O)NCCCP(=O)(O)CP(=O)(O)O)cc3)c3ncnc(N)c23)c1` was tested. Which IC50 did it give?
**A.** 0.25 µM

**Q.** With `COc1cccc(-c2cn(-c3cccc(C(=O)NCCCP(=O)(O)CP(=O)(O)O)c3)c3ncnc(N)c23)c1` as the molecule, how does the IC50 read?
**A.** 0.36 µM

**Q.** Which IC50 does the source give for `COc1cccc(-c2cn(-c3ccc(C(=O)O)cc3)c3ncnc(N)c23)c1` here?
**A.** 1.5 µM

**Q.** `Cc1ccc(-c2nn(-c3cccc(C(=O)NCc4ccc(P(=O)(O)O)c(P(=O)(O)O)c4)c3)c3ncnc(N)c23)cc1` was tested. Which IC50 did it give?
**A.** 0.32 µM

**Q.** For `Nc1ncnc2c1c(-c1cccc(O)c1)cn2-c1ccc(CCO)cc1`, which IC50 is on record?
**A.** 0.04 µM

**Q.** `COc1cccc(-c2cn(-c3ccc(CCN(C)CCO)cc3)c3ncnc(N)c23)c1` was tested. Which IC50 did it give?
**A.** 0.16 µM

**Q.** With `COc1cccc(-c2nn(-c3cccc(P(=O)(O)CC(=O)O)c3)c3ncnc(N)c23)c1` as the molecule, how does the IC50 read?
**A.** 1.6 µM

**Q.** `COc1cccc(-c2cn(-c3ccc(C(=O)Nc4ccc(C(P(=O)(O)O)P(=O)(O)O)cc4)cc3)c3ncnc(N)c23)c1` was tested. Which IC50 did it give?
**A.** 40 µM

**Q.** For `Cc1ccc(-c2nn(CCCCOP(=O)(O)CP(=O)(O)O)c3ncnc(N)c23)cc1`, which IC50 is on record?
**A.** 0.68 µM

**Q.** For `COc1cccc(-c2cn(-c3ccc(CCN(C)CCOP(=O)(O)CP(=O)(O)O)cc3)c3ncnc(N)c23)c1`, which IC50 is on record?
**A.** 0.31 µM

**Q.** How did the IC50 turn out when `Nc1ncnc2c1c(-c1cccc(O)c1)cn2-c1ccc(CCOP(=O)(O)CP(=O)(O)O)cc1` was run?
**A.** 0.06 µM

**Q.** With `COc1cccc(-c2cn(-c3cccc(C(=O)O)c3)c3ncnc(N)c23)c1` as the molecule, how does the IC50 read?
**A.** 4 µM

**Q.** With `Cc1ccc(-c2nn(-c3cccc(C(=O)NCCCP(=O)(O)CP(=O)(O)O)c3)c3ncnc(N)c23)cc1` as the molecule, how does the IC50 read?
**A.** 0.4 µM

**Q.** With `COc1cccc(-c2cn(-c3cccc(C(=O)Nc4ccc(C(P(=O)(O)O)P(=O)(O)O)cc4)c3)c3ncnc(N)c23)c1` as the molecule, how does the IC50 read?
**A.** 19 µM

**Q.** For `COc1cccc(-c2cn(-c3cccc(C(=O)Nc4ccc(P(=O)(O)O)c(P(=O)(O)O)c4)c3)c3ncnc(N)c23)c1`, which IC50 is on record?
**A.** 2.5 µM

**Q.** `CN(CCO)CCc1ccc(-n2cc(-c3cccc(O)c3)c3c(N)ncnc32)cc1` was tested. Which IC50 did it give?
**A.** 0.04 µM

**Q.** Which IC50 does the source give for `COc1cccc(-c2cn(-c3ccc(CCOP(=O)(O)CP(=O)(O)O)cc3)c3ncnc(N)c23)c1` here?
**A.** 0.7 µM
